Values of other authors, collected in US20080103154A1, “3, 4-dihydro-2(IH)-quinolinone and 2(1H)-quinolinone derivatives” (Concert Pharmaceuticals Inc., priority 2006, published 2008).

Legend:
[1] = biological target: 5-HT2A (Homo sapiens, UniProt P28223); conditions: transfected cell lines expressing rat and human receptors
[2] = tested on: α1; conditions: transfected cell lines expressing rat and human receptors
[3] = biological target: T1, 5-HT1A (Homo sapiens, UniProt P08908); conditions: transfected cell lines expressing rat and human receptors
T1 sequence (P08908 1-422): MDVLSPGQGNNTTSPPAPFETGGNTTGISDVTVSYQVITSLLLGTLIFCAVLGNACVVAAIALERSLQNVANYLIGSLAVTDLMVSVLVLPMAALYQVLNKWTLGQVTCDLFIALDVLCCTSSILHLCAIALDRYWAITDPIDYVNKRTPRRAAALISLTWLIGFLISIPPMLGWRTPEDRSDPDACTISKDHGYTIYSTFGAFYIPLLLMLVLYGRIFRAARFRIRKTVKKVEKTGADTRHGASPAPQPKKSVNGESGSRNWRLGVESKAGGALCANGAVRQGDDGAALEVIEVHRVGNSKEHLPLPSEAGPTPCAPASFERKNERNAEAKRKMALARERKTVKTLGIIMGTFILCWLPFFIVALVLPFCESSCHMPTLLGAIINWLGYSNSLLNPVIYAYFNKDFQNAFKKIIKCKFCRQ

[4] = biological target: H1 receptors (Homo sapiens, UniProt P35367); conditions: transfected cell lines expressing rat and human receptors
[5] = biological target: T2, 5-HT2C (Homo sapiens, UniProt P28335); conditions: transfected cell lines expressing rat and human receptors
T2 sequence (P28335 33-458): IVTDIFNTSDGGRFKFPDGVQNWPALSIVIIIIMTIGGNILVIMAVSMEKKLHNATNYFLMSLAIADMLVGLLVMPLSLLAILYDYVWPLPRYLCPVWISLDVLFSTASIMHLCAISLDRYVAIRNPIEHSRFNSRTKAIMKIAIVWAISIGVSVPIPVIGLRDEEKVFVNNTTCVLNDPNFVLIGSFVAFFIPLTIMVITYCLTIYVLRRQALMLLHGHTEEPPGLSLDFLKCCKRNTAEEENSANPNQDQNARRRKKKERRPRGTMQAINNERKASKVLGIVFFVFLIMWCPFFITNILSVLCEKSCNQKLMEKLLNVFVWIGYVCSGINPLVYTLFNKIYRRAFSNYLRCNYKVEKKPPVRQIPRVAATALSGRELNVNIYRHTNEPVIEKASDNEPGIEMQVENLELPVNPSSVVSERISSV

[6] = not given; remark: listed apart in the source

H1 receptors, sequence (P35367 whole entry): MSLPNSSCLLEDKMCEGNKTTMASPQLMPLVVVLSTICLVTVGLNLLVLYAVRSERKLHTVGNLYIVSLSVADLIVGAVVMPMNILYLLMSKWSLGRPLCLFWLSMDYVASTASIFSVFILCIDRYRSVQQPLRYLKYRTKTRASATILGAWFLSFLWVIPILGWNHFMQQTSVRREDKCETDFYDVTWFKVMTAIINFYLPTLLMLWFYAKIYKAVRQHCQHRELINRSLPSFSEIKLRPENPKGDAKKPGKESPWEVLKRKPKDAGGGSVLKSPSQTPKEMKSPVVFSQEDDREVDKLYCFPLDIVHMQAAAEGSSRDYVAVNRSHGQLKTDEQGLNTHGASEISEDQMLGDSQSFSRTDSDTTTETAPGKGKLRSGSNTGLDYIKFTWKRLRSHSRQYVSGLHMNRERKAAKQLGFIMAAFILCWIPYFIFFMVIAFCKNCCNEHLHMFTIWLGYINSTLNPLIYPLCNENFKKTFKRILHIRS
5-HT2A, sequence (P28223 whole entry): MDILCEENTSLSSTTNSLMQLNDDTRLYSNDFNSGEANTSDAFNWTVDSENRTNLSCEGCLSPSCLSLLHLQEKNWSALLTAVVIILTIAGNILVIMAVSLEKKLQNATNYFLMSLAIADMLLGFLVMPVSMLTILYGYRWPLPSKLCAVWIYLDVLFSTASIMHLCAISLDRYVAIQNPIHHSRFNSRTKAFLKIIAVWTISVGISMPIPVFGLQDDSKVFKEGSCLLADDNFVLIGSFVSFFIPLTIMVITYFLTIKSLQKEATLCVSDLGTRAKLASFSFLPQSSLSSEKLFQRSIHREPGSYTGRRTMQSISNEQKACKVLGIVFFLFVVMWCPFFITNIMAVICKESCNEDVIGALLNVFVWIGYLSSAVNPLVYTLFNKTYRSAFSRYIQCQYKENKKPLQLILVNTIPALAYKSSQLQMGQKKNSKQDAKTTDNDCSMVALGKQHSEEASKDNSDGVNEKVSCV

Compound	affinity binding to 5-HT2A [1]	metabolism (humans)	absorption (oral administration in humans)	absolute oral bioavailability (oral formulation, humans) [%]	affinity to α1 [2]	affinity binding to 5-HT1A [3]	affinity to H1 receptors [4]	affinity to 5-HT2C [5]	share of activity accounted for by metabolite ([6]; humans) [%]	potency relative to aripiprazole ([6]; metabolite of aripiprazole)
O=C1CCc2ccc(OCCCCN3CCN(c4cccc(Cl)c4Cl)CC3)cc2N1 [Aripiprazole]	high affinity	extensively metabolized	well absorbed	87	moderate affinity	high affinity	moderate affinity	moderate affinity	–	–
O=c1ccc2ccc(OCCCCN3CCN(c4cccc(Cl)c4Cl)CC3)cc2[nH]1 [dehydroaripiprazole]	–	–	–	–	–	–	–	–	20	equipotent with aripiprazole
